{
  "source": "patent US20230022796A1",
  "about": "(Merck Patent GmbH, priority 2019, published 2023)",
  "assay_type_in_all_cases": "cell-based, Chinese hamster",
  "key": {"[1]": {"test_system": "CHO cell line producing a fusion protein", "test": "Glycosylation profile (UPLC-MS of released glycans) of fusion protein from fed-batch", "conditions": "400 μM additive, day 12", "procedure": "(§1) Glycosylation patterns were analyzed by ultra-performance liquid chromatography coupled to a mass spectrometer (UPLC-MS). The purified antibody was denaturated and the glycans were released from the antibody by digestion with peptide N-glycosidase F (PNGase F) followed by labeling the glycans with the GlycoWorks™ RapiFluor-MS™ N-Glycan Kit according to the manufacturer protocol. For the analysis, an UPLC glycan column (2.1×150 mm) that separated the glycans according to their […] was used. The chromatography was performed at 45° C. using 50 mM ammonium formate (A), pH 4.4 solution and an acetonitrile (B) gradient. In detail, at the beginning the ratio of A:B was 20:80 (0 min) and changed to 27:73 at 3 min and 37:63 at 35 min at a flow rate of 0.5 ml/min. From 36.5 min to 39.5 min only A was used as mobile phase and the flow rate was reduced to 0.2 ml/min. Subsequently, the ratio was changed to 20% A:80% B and the flowrate was increased to 0.5 ml/min at 43.1 min until the end of the process at 55 min. The detection was performed by a fluorescence detector with an excitation wavelength of 265 nm and an emission wavelength of 425 nm. The identification of the glycan structures was performed by MS using positive electro spray ionization (ESI), which was calibrated every 30 s with a standard.\n(§2) Four different clones of Chinese hamster ovary (CHO) cells expressing three different monoclonal antibodies (mAb) and a fusion protein were tested. Cells were cultivated in spin tubes between 14 and 20 days at 37° C., 5% CO2, and 80% humidity. As starting cell density, 3×10^5 cells/mL in 30 mL Cellvento®4CHO media (pH 7.0±0.1) was used for clone 1 and 2 producing mAb1 and mAb2, respectively (Cellvento® Platform). Cells were cultivated at an agitation of 320 rpm and were fed on day 3, 5, 10, 12 and 14 with 3% volume of Cellvento® 4Feed (v/v) and on day 7 with 6% (v/v) of the feed. Clone 3 and 4 producing mAb3 and a fusion protein were inoculated at the same cell density in 30 mL Ex-Cell® Advanced Media (pH 7.2±0.1) while agitation was set to 230 rpm (Ex-Cell® Platform). Clones 3 and 4 were fed with […] Advanced Feed (v/v) on day 3, 5, 7, 10, 12, 14 and 17. […] The pH of all Cellvento® feeds was adjusted to 7.0±0.1 and Ex-Cell® Feeds were adjusted to 8.5±0.1. The glucose level was maintained above 4 g/L by adding a specific amount of a 400 g/L glucose stock solution on demand to up to 6 g/L during the week and up to 13 g/L over the weekend. Glucose and titer were detected in the supernatant with the bioprocess analyzer CEDEX Bio HT (Roche, Mannheim, Germany).\n(§3) To investigate the glycosylation profile during the fed-batch experiment samples were centrifugated and antibodies and Fc-fusion proteins were purified from the cell culture supernatant using protein A PhyTips® (PhyNexus Inc, San Jose, Calif.). Glycosylation patterns were analyzed as described by ultra-performance liquid chromatography coupled to a mass spectrometer (UPLC-MS) using the GlycoWorks™ RapiFluor-MS™ N-Glycan Kit.\n(§4) Glycosylation profile on day 12 was visualized since harvest of recombinant produced proteins on day 12 is common. Quantification of the glycans was obtained using the relative peak area of the fluorescence signal. Almost all peaks were assigned to glycan structures according to their mass. Unknown glycan structures and signals without mass detection were summarized as unknown species (not shown). Four different clones of Chinese hamster ovary (CHO) cells expressing three different monoclonal antibodies (mAb) and a fusion protein were tested. […] The known positive control achieved a 14% fucosylation level on day 12 by increasing the afucosylation to 78%. The same amount of afucosylation compared to the known fucose-analogue acetylated 2F-Fucose was only achieved by clone 3 expressing mAb3 leading to about 34% afucosylation on day 12 (FIG. 8 C)."}, "[2]": {"test_system": "CHO cell line producing mAb3", "test": "Glycosylation profile (UPLC-MS of released glycans) of mAb3 from fed-batch", "procedure": "as §1, §2, §3\nas §4, with “C). […]” for “C).”"}, "[3]": {"test_system": "CHO cell line producing mAb2", "test": "Glycosylation profile (UPLC-MS of released glycans) of mAb2 from fed-batch", "conditions": "mAb2, 400 μM additive, day 12", "procedure": "as §1, §2, §3\nGlycosylation profile on day 12 was visualized since harvest of recombinant produced proteins on day 12 is common. Quantification of the glycans was obtained using the relative peak area of the fluorescence signal. Almost all peaks were assigned to glycan structures according to their mass. Unknown glycan structures and signals without mass detection were summarized as unknown species (not shown). […]"}, "[4]": {"conditions": "mAb3, 400 μM additive, day 12, listed as ThioFuc"}, "[5]": {"conditions": "mAb3, 800 μM additive, day 12, listed as ThioFuc"}},
  "data": [
    {"smiles": "C[C@@H]1SC(O)[C@@H](O)[C@H](O)[C@@H]1O", "note": "(stereo partly shown)", "values": [
      {"measurement": "afucosylation", "setting": "[1]", "result": 52, "unit": "%"},
      {"measurement": "incorporation of fucose analogue (% of the glycans)", "setting": "[1]", "result": 39, "unit": "%"},
      {"measurement": "reduction of core-fucosylation compared to the control", "setting": "[1]", "result": "about 63%"},
      {"measurement": "% Afucosylated", "setting": "[2]; mAb3, 50 μM additive, day 5", "result": 17.7, "unit": "%"},
      {"measurement": "% Fucosylated", "setting": "[2]; mAb3, 50 μM additive, day 5", "result": 81.4, "unit": "%"},
      {"measurement": "% fucose analogue (incorporated)", "setting": "[2]; mAb3, 50 μM additive, day 5", "result": 0.38, "unit": "%"},
      {"measurement": "% Afucosylated", "setting": "[2]; mAb3, 50 μM additive, day 12", "result": 16.0, "unit": "%"},
      {"measurement": "% Fucosylated", "setting": "[2]; mAb3, 50 μM additive, day 12", "result": 72.5, "unit": "%"},
      {"measurement": "% fucose analogue (incorporated)", "setting": "[2]; mAb3, 50 μM additive, day 12", "result": "~11", "unit": "%"},
      {"measurement": "% fucose analogue (incorporated)", "setting": "[2]; mAb3, 50 μM additive, day 12, listed as ThioFuc", "result": 10.7, "unit": "%"},
      {"measurement": "% Afucosylated", "setting": "[2]; mAb3, 50 μM additive, day 14", "result": 16.1, "unit": "%"},
      {"measurement": "% Fucosylated", "setting": "[2]; mAb3, 50 μM additive, day 14", "result": 69.9, "unit": "%"},
      {"measurement": "% fucose analogue (incorporated)", "setting": "[2]; mAb3, 50 μM additive, day 14", "result": 13.6, "unit": "%"},
      {"measurement": "% Afucosylated", "setting": "[2]; mAb3, 200 μM additive, day 5", "result": 22.1, "unit": "%"},
      {"measurement": "% Fucosylated", "setting": "[2]; mAb3, 200 μM additive, day 5", "result": 62.9, "unit": "%"},
      {"measurement": "% fucose analogue (incorporated)", "setting": "[2]; mAb3, 200 μM additive, day 5", "result": 14.5, "unit": "%"},
      {"measurement": "% Afucosylated", "setting": "[2]; mAb3, 200 μM additive, day 12", "result": 30.1, "unit": "%"},
      {"measurement": "% Fucosylated", "setting": "[2]; mAb3, 200 μM additive, day 12", "result": 33.3, "unit": "%"},
      {"measurement": "% fucose analogue (incorporated)", "setting": "[2]; mAb3, 200 μM additive, day 12", "result": "~36", "unit": "%"},
      {"measurement": "% fucose analogue (incorporated)", "setting": "[2]; mAb3, 200 μM additive, day 12, listed as ThioFuc", "result": 35.9, "unit": "%"},
      {"measurement": "% Afucosylated", "setting": "[2]; mAb3, 200 μM additive, day 14", "result": 32.1, "unit": "%"},
      {"measurement": "% Fucosylated", "setting": "[2]; mAb3, 200 μM additive, day 14", "result": 28.6, "unit": "%"},
      {"measurement": "% fucose analogue (incorporated)", "setting": "[2]; mAb3, 200 μM additive, day 14", "result": 39.1, "unit": "%"},
      {"measurement": "% Afucosylated", "setting": "[2]; mAb3, 400 μM additive, day 5", "result": 28.7, "unit": "%"},
      {"measurement": "% Fucosylated", "setting": "[2]; mAb3, 400 μM additive, day 5", "result": "about 48%"},
      {"measurement": "% fucose analogue (incorporated)", "setting": "[2]; mAb3, 400 μM additive, day 5", "result": 26.5, "unit": "%"},
      {"measurement": "% Fucosylated", "setting": "[2]; mAb3, 400 μM additive, day 5, listed as ThioFuc", "result": 46.4, "unit": "%"},
      {"measurement": "fucosylation level", "setting": "[2]; mAb3, 400 μM additive, day 7", "result": "about 34%"},
      {"measurement": "fucosylation level", "setting": "[2]; mAb3, 400 μM additive, day 10", "result": "~25", "unit": "%"},
      {"measurement": "% Fucosylated", "setting": "[2]; mAb3, 400 μM additive, day 12", "result": 21, "unit": "%"},
      {"measurement": "% Afucosylated", "setting": "[2]; [4]", "result": 34.8, "unit": "%"},
      {"measurement": "% Fucosylated", "setting": "[2]; [4]", "result": 20.9, "unit": "%"},
      {"measurement": "% fucose analogue (incorporated)", "setting": "[2]; [4]", "result": 44.1, "unit": "%"},
      {"measurement": "% Afucosylated", "setting": "[2]; mAb3, 400 μM additive, day 14", "result": 36.0, "unit": "%"},
      {"measurement": "% Fucosylated", "setting": "[2]; mAb3, 400 μM additive, day 14", "result": "~18", "unit": "%"},
      {"measurement": "% fucose analogue (incorporated)", "setting": "[2]; mAb3, 400 μM additive, day 14", "result": 46.2, "unit": "%"},
      {"measurement": "% Fucosylated", "setting": "[2]; mAb3, 400 μM additive, day 14, listed as ThioFuc", "result": 17.7, "unit": "%"},
      {"measurement": "% Afucosylated", "setting": "[2]; mAb3, 800 μM additive, day 5", "result": 32.3, "unit": "%"},
      {"measurement": "% Fucosylated", "setting": "[2]; mAb3, 800 μM additive, day 5", "result": 40.4, "unit": "%"},
      {"measurement": "% fucose analogue (incorporated)", "setting": "[2]; mAb3, 800 μM additive, day 5", "result": 31.7, "unit": "%"},
      {"measurement": "% Afucosylated", "setting": "[2]; mAb3, 800 μM additive, day 12", "result": "about 36%"},
      {"measurement": "% Fucosylated", "setting": "[2]; mAb3, 800 μM additive, day 12", "result": "about 15%"},
      {"measurement": "% fucose analogue (incorporated)", "setting": "[2]; mAb3, 800 μM additive, day 12", "result": "about 48%"},
      {"measurement": "reduction of fucosylation compared to the control", "setting": "[2]; mAb3, 800 μM additive, day 12", "result": "about 75%"},
      {"measurement": "% Afucosylated", "setting": "[2]; [5]", "result": 36.4, "unit": "%"},
      {"measurement": "% Fucosylated", "setting": "[2]; [5]", "result": 15.4, "unit": "%"},
      {"measurement": "% fucose analogue (incorporated)", "setting": "[2]; [5]", "result": 47.8, "unit": "%"},
      {"measurement": "% Afucosylated", "setting": "[2]; mAb3, 800 μM additive, day 14", "result": 38.0, "unit": "%"},
      {"measurement": "% Fucosylated", "setting": "[2]; mAb3, 800 μM additive, day 14", "result": 12.5, "unit": "%"},
      {"measurement": "% fucose analogue (incorporated)", "setting": "[2]; mAb3, 800 μM additive, day 14", "result": 49.3, "unit": "%"},
      {"measurement": "afucosylation", "setting": "[3]", "result": 60, "unit": "%"},
      {"measurement": "core-fucosylation", "setting": "[3]", "result": 8, "unit": "%"}
    ]}
  ]
}
